Source: patent publication US20180099931A1 (AbbVie S.à.r.l., priority 2016, published 2018)
Where two headings read alike, the source gives them in different places.

Biological target: T1, F508delCFTR (Homo sapiens, UniProt P13569, DEL508-508)
T1 construct: expressed in transfected cells; host or cells: CFBE41o- human lung-derived epithelial cells (CFBE4lo-F508delCFTR-HRP), doxycycline-inducible
Assay: Cell Surface Expression-Horse Radish Peroxidase (CSE-HRP) Assay;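 as to Maximum % activity (with co-corrector): co-corrector and positive control are both the same reference corrector at 2 µM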;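 as to Maximum % activity (without co-corrector): percent of the 2 µM on-plate positive control corrector response above DMSO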
Format: cell-based
Details: for Maximum % activity (with co-corrector) / Emax: maximum at any tested concentration, normalized to on-plate positive control; for Emax: read-out: Maximum % activity (without co-corrector)

[1] = test compound without co-corrector, read-out: EC50 (without co-corrector)
[2] = with co-corrector (2 μM of 3-[(2R,4R)-4-({[1-(2,2-difluoro-1,3-benzodioxol-5-yl)cyclopropyl]carbonyl}amino)-7-methoxy-3,4-dihydro-2H-chromen-2-yl]benzoic acid), read-out: EC50 (with co-corrector)
[3] = test compound without co-corrector
[4] = with co-corrector (2 μM of 3-[(2R,4R)-4-({[1-(2,2-difluoro-1,3-benzodioxol-5-yl)cyclopropyl]carbonyl}amino)-7-methoxy-3,4-dihydro-2H-chromen-2-yl]benzoic acid)
[5] = CSE-HRP, test compound without co-corrector, read-out: EC50 (without co-corrector)
[6] = CSE-HRP, with co-corrector (2 μM of 3-[(2R,4R)-4-({[1-(2,2-difluoro-1,3-benzodioxol-5-yl)cyclopropyl]carbonyl}amino)-7-methoxy-3,4-dihydro-2H-chromen-2-yl]benzoic acid), read-out: EC50 (with co-corrector)
[7] = CSE-HRP, with co-corrector (2 μM)

T1 sequence (P13569 with tags, fused parts or gaps DEL508-508): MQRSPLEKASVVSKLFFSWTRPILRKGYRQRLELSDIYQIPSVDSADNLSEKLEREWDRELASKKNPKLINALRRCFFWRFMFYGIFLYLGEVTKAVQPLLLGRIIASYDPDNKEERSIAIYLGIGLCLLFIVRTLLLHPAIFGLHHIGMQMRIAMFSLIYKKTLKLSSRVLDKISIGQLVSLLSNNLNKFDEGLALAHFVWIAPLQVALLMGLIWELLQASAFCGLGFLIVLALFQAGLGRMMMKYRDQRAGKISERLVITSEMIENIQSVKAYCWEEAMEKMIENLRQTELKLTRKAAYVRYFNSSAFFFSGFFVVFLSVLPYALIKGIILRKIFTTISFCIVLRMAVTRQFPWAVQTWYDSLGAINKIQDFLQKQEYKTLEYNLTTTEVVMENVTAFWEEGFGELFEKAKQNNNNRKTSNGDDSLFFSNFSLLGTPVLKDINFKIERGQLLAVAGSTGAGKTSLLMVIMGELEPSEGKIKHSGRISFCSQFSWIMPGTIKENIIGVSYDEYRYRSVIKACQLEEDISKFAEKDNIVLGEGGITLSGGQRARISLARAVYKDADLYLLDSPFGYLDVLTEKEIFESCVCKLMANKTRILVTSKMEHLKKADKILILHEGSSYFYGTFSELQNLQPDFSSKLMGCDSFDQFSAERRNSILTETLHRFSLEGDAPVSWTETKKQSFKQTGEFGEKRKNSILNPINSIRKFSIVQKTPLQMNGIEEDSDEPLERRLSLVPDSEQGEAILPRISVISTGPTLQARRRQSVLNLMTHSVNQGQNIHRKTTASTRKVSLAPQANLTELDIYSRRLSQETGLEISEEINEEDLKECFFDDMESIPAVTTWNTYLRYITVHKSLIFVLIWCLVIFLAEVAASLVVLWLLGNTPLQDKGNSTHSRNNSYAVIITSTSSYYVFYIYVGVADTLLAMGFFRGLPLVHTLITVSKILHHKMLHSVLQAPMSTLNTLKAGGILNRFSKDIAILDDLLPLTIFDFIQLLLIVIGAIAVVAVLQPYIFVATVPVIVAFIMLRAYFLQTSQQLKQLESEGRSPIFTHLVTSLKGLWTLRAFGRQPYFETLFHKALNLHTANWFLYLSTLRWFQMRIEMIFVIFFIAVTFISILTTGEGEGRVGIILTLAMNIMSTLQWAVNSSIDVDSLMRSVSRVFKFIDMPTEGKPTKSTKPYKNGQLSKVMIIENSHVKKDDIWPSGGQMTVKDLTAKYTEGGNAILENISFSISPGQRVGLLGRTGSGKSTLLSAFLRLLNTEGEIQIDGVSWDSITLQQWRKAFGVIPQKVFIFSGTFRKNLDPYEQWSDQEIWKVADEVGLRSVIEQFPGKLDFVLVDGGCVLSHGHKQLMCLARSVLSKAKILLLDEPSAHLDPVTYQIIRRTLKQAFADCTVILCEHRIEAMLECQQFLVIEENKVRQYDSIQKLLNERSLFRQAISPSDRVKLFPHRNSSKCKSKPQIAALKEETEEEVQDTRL

Compound | EC50 [1] [nM] | EC50 [2] [nM] | Maximum % activity (with co-corrector) (with co-corrector (2 μM)) | Emax (without co-corrector) [%] | Emax [3] [%] | Maximum % activity (with co-corrector) [4] | EC50 [5] [nM] | EC50 [6] [nM] | Maximum % activity (with co-corrector) [7] | Emax (CSE-HRP, without co-corrector) [%] | Maximum % activity (with co-corrector) (with co-corrector (2 μM), 2 µM)
CO[C@@H](C(=O)N1[C@H](c2ccccc2)[C@H](Nc2cc(C(F)(F)F)cc(C)n2)[C@@H](C(C)(C)C)[C@@H]1C(=O)O)c1ccccc1 [III-75] | 1000 to 10000 | 1000 to 10000 | – | – | < 100 | ++ (≥150 and <350) | – | – | – | – | –
COc1ccc(C(C)(C)C)cc1CN[C@H]1[C@H](C(C)(C)C)[C@@H](C(=O)O)N(C(=O)[C@@H]2CCC[C@@H](OC)C2)[C@H]1c1cccnc1N(C)C (relative stereo) [II-449] | 1000 to 10000 | < 1000 | – | – | > 200 | +++ (≥350) | – | – | – | – | –
COc1ccc(C(F)(F)F)cc1CN[C@H]1[C@H](C(C)(C)C)[C@@H](C(=O)O)N(C(=O)[C@@H]2CCCO2)[C@H]1c1cccnc1C1CC1 [Example I-269] | – | – | – | – | – | – | 1000 to 10000 | 1000 to 10000 | +++ (≥350) | 100 to 200 | –
COc1cccc([C@H]2[C@@H](NCc3cc(C(F)(F)F)ccc3OC)[C@H](C(C)(C)C)[C@@H](C(=O)O)N2C(=O)C2(C)CCCOC2)n1 (relative stereo) [III-70] | > 10000 | 1000 to 10000 | – | – | < 100 | ++ (≥150 and <350) | – | – | – | – | –
COc1ccc(CC2CCCCC2)cc1CN[C@H]1[C@H](C(C)(C)C)[C@@H](C(=O)O)N(C(=O)C2CCCCC2)[C@H]1c1ccccc1 [III-169] | < 1000 | < 1000 | +++ (≥350) | – | > 200 | – | – | – | – | – | –
COc1ncc(Br)cc1CN[C@H]1[C@H](C(C)(C)C)[C@@H](C(=O)O)N(C(=O)C2CCCCC2)[C@H]1c1ccccc1F [II-263] | – | – | – | – | – | – | 1000 to 10000 | 1000 to 10000 | +++ (≥350) | < 100 | –
CC(C)(C)[C@H]1[C@H](NCc2ccc3c(c2)CCCO3)[C@H](c2ccccc2)N(C(=O)C2CCCCC2)[C@@H]1C(=O)O [III-120] | > 10000 | 1000 to 10000 | ++ (≥150 and <350) | – | < 100 | – | – | – | – | – | –
Cc1ccccc1CN[C@@H]1[C@@H](C(C)(C)C)[C@H](C(=O)O)N(C(=O)CC2CCCC2)[C@@H]1c1ccccc1 (racemic) [III-2] | > 10000 | 1000 to 10000 | – | – | < 100 | ++ (≥150 and <350) | – | – | – | – | –
COc1ccc(Cl)cc1CN[C@H]1[C@H](C(C)(C)C)[C@@H](C(=O)O)N(C(=O)C2CCCCC2)[C@H]1c1cccnc1C [II-95] | – | – | – | – | – | – | 1000 to 10000 | 1000 to 10000 | +++ (≥350) | < 100 | –
COc1cccc([C@@H]2[C@H](NCc3ccccc3OC(F)F)[C@@H](C(C)(C)C)[C@H](C(=O)O)N2C(=O)N(C(C)C)C(C)C)n1 (racemic) [III-59] | > 10000 | 1000 to 10000 | – | – | < 100 | + (<150) | – | – | – | – | –
COc1ccc(C2(C)CCC2)cc1CN[C@H]1[C@H](C(C)(C)C)[C@@H](C(=O)O)N(C(=O)[C@@H]2CCCO2)[C@H]1c1ccccc1C1CC1 [Example 112, (2S,3S,4S,5S)-3-tert-butyl-5-(2-cyclopropylphenyl)-4-({[2-methoxy-5-(1-methylcyclobutyl)phenyl]methyl}amino)-1-[(2S)-oxolane-2-carbonyl]pyrrolidine-2-carboxylic acid] | 1000 to 10000 | < 1000 | +++ (≥350) | > 200 | – | – | – | – | – | – | –
COc1ccc(C2(C(F)(F)F)CC2)cc1CN[C@H]1[C@H](C(C)(C)C)[C@@H](C(=O)O)N(C(=O)C2Cc3ccccc3O2)[C@H]1c1cccnc1N(C)C (single isomer, unassigned) [Example I-175] | < 1000 | < 1000 | – | < 100 | – | – | – | – | – | – | +++ (≥350)

Next, values leading:

EC50 [1] [nM] | EC50 [2] [nM] | Maximum % activity (with co-corrector) (with co-corrector (2 μM)) | Emax (without co-corrector) [%] | Emax [3] [%] | Maximum % activity (with co-corrector) [4] | EC50 [5] [nM] | EC50 [6] [nM] | Maximum % activity (with co-corrector) [7] | Emax (CSE-HRP, without co-corrector) [%] | Maximum % activity (with co-corrector) (with co-corrector (2 μM), 2 µM) | Compound
1000 to 10000 | 1000 to 10000 | +++ (≥350) | > 200 | – | – | – | – | – | – | – | COc1ccc(C(C)(C)C)cc1CN[C@H]1[C@H](C(C)(C)OC)[C@@H](C(=O)O)N(C(=O)OC(C)C)[C@H]1c1cccnc1N(C)C [Example I-220]
– | – | – | – | – | – | 1000 to 10000 | 1000 to 10000 | +++ (≥350) | 100 to 200 | – | COc1cc(Cl)ccc1CN[C@H]1[C@H](C(C)(C)C)[C@@H](C(=O)O)N(C(=O)C2CCCCC2)[C@H]1c1ccccc1 [II-99]
< 1000 | < 1000 | – | – | > 200 | +++ (≥350) | – | – | – | – | – | COc1ccc(C(C)(C)C)cc1CN[C@H]1[C@H](C(C)(C)C)[C@@H](C(=O)O)N(C(=O)C2CCc3cccc(OC)c3C2)[C@H]1c1ccccc1 (some centres unmarked) [II-317]
– | – | – | – | – | – | 1000 to 10000 | 1000 to 10000 | ++ (≥150 and <350) | < 100 | – | COc1ccc(C(C)(C)C)cc1CN[C@H]1[C@H](C(C)(C)C)[C@@H](C(=O)O)N(C(=O)c2cccnc2C)[C@H]1c1ccccc1 [II-198]
1000 to 10000 | < 1000 | +++ (≥350) | > 200 | – | – | – | – | – | – | – | COc1ccc(C23CC(C2)C3)cc1CN[C@H]1[C@H](C(C)(C)C)[C@@H](C(=O)O)N(C(=O)OC(C)C)[C@H]1c1ccccc1 [Example I-210]
1000 to 10000 | 1000 to 10000 | – | – | 100 to 200 | +++ (≥350) | – | – | – | – | – | COc1ccc(C(C)(C)C)cc1CN[C@H]1[C@H](C(C)(C)C)[C@@H](C(=O)O)N(C(=O)OC(C)C)[C@H]1c1cccnc1OC [II-511]
– | – | – | – | – | – | 1000 to 10000 | 1000 to 10000 | +++ (≥350) | < 100 | – | CC(C)OC(=O)N1[C@H](C(=O)O)[C@@H](C(C)(C)C)[C@H](NCC2CCCN(c3ccc(C(F)(F)F)cc3)C2)[C@@H]1c1ccccc1 (some centres unmarked) [Example I-268]
1000 to 10000 | < 1000 | +++ (≥350) | – | > 200 | – | – | – | – | – | – | COc1ccc(C(C)(C)C)cc1CN[C@H]1[C@H](C(C)(C)C)[C@@H](C(=O)O)N(C(=O)C2CCOC(C(C)C)C2)[C@H]1c1ccccc1 (some centres unmarked) [III-179]
1000 to 10000 | < 1000 | +++ (≥350) | – | 100 to 200 | – | – | – | – | – | – | COc1cc2c(cc1CN[C@H]1[C@H](C(C)(C)C)[C@@H](C(=O)O)N(C(=O)OC(C)C)[C@H]1c1ccccc1)C(C)(C)CCC2(C)C [III-227]
– | – | – | – | – | – | 1000 to 10000 | 1000 to 10000 | +++ (≥350) | > 200 | – | COc1ccc(C(C)(C)C)cc1CN[C@H]1[C@H](C(C)(C)C)[C@@H](C(=O)O)N(C(=O)C(OC)C(C)C)[C@H]1c1ccccc1 (some centres unmarked) [II-267]
– | – | – | – | – | – | 1000 to 10000 | 1000 to 10000 | ++ (≥150 and <350) | < 100 | – | CCOc1ccc(CN[C@H]2[C@H](C(C)(C)C)[C@@H](C(=O)O)N(C(=O)C3CCCCC3)[C@H]2c2ccccc2)c(C)c1 [II-119]
> 10000 | 1000 to 10000 | + (<150) | – | < 100 | – | – | – | – | – | – | COc1ccc(C(C)(C)C)cc1CN[C@H]1[C@H](C(C)(C)C)[C@@H](C(=O)O)N(C(=O)N(C(C)C)C(C)C)[C@H]1c1ccccc1 [III-217]
1000 to 10000 | 1000 to 10000 | +++ (≥350) | 100 to 200 | – | – | – | – | – | – | – | COc1ncc(Cl)cc1CN[C@@H]1[C@@H](C(C)(C)C)[C@H](C(=O)O)N(C(=O)C2CCCCC2)[C@@H]1c1ccccc1 (racemic) [Example I-36]
1000 to 10000 | 1000 to 10000 | ++ (≥150 and <350) | – | < 100 | – | – | – | – | – | – | COc1ccc(C(F)(F)F)cc1CN[C@H]1[C@H](C(C)(C)C)[C@@H](C(=O)O)N(C(=O)[C@H]2CCCC(F)(F)C2)[C@H]1c1ccccc1 [III-185]
